Results from US20080096238A1, “HIGH THROUGHPUT ASSAY FOR HUMAN RHO KINASE ACTIVITY WITH ENHANCED SIGNAL-TO-NOISE RATIO” (ALCON, INC., priority 2004, published 2008).

How the values were obtained:
[1] = test system: Rabbit Eyes; test: Intraocular pressure reduction in rabbit eyes after topical ocular dosing; type: in vivo;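 note: mean IOP reduction per time point from 7-8 rabbits per group, drug-treated groups alongside vehicle-treated control groups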
[2] = test system: Ocular Hypertensive Monkey Eyes; test: Intraocular pressure reduction in conscious ocular hypertensive cynomolgus monkey eyes after topical ocular dosing; type: in vivo;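 note: mean of 8 drug-treated monkeys per time point, IOP change expressed against a vehicle-dosed control group of 5 monkeys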
[3] = biological target: T1, Human Recombinant ROCK II Enzyme (Homo sapiens, UniProt O75116); test: High throughput human recombinant ROCK II enzyme inhibition assay (γ-33P-ATP, Long S6 substrate peptide, filter mat); type: biochemical; settings: mean ± SEM; for Hill Coefficient (nH): Hill coefficient of the inhibition plots; for IC50: recombinant human ROCK II (aa 11-552), 100 μM ATP, 30 min at 30° C., read-out: Inhibition Constant (IC50)
T1 construct: purchased Upstate USA, Inc., Lake Placid, N.Y. 14-451
Method: The enzyme assays are performed using a Biomek 2000 Robotic Workstation (Beckman Instruments, Palo Alto, Calif.) in a 96-well format using γ-^33P-ATP (Perkin-Elmer Life Sciences, Boston, Mass.). Stock γ-^33P-ATP (3000 Ci/mmol) is diluted to 1 μCi/μl with the MgCl2/ATP cocktail solution. The concentrations of MgCl2/ATP used are 15 mM and 100 μM, respectively. […] The unutilized [γ-^33P]-ATP and other residual reagents are thereby eliminated from the filter mat but the radioactive phosphorylated peptide product is retained on the filter mat for quantification. The automated washing of the filter mat thereby enhances the signal-to-noise ratio of the assay thus rendering it into a sensitive assay. The filter mats bearing the captured radioactive phosphorylated product are then dried in a microwave oven for 15 sec, placed in special sample cellophane bag (Wallac Inc., Turku, Finland) designed for these filter mats and covered with 20 ml of Betaplate scintillation fluid (Perkin-Elmer Inc., Boston, Mass.). The bags are then sealed using a heat sealer device (Wallac Inc., Turku, Finland) and a roller used to evenly spread the scintillation fluid over the whole of the filter mat.
In a further embodiment of the present invention, the dried filter mat can be covered with a solid scintillant (MELTILEX®; Wallac Inc., Turku, Finland) that is melted directly onto the filter mat using a MELTILEX® heat sealer (Wallac Inc., Turku, Finland), a device designed for this purpose. The coated filter mat is then placed in a sample cellophane bag (Wallac Inc., Turku, Finland) designed for these filter mats that is then sealed and the radioactivity determined as described above. The solid scintillant assists in avoiding the spread of radioactivity from sample to sample on the dried filter mat and thus minimizes variation of the data. A solid scintillant also eliminates waste disposal of liquid scintillation fluid.
The raw data from the filter mats are then automatically sent electronically to a computer for semi-automated analyses using algorithms and a suite of programs (XLFITT computer program; IDBS corporation, Emeryville, Calif.) that perform non-linear, iterative, sigmoidal-fit analyses of the raw data.

[4] = topical ocular dose 500 μg, 1 Hour Post Dosing
[5] = topical ocular dose 500 μg, 2 Hours Post Dosing
[6] = topical ocular dose 500 μg, 3 Hours Post Dosing
[7] = topical ocular dose 500 μg, 4 Hours Post Dosing
[8] = topical ocular dose 1 mg, 1 Hour Post Dosing
[9] = topical ocular dose 1 mg, 3 Hours Post Dosing
[10] = topical ocular dose 300 μg, 1 Hour Post Dosing
[11] = topical ocular dose 300 μg, 3 Hours Post Dosing
[12] = topical ocular dose 300 μg, 6 Hours Post Dosing
[13] = topical ocular dose 1 mg, 6 Hours Post Dosing
[14] = topical ocular dose 300 μg, 2 Hours Post Dosing
[15] = topical ocular dose 300 μg, 4 Hours Post Dosing
[16] = topical ocular dose 500 μg, 6 Hours Post Dosing

T1 sequence (O75116 11-552): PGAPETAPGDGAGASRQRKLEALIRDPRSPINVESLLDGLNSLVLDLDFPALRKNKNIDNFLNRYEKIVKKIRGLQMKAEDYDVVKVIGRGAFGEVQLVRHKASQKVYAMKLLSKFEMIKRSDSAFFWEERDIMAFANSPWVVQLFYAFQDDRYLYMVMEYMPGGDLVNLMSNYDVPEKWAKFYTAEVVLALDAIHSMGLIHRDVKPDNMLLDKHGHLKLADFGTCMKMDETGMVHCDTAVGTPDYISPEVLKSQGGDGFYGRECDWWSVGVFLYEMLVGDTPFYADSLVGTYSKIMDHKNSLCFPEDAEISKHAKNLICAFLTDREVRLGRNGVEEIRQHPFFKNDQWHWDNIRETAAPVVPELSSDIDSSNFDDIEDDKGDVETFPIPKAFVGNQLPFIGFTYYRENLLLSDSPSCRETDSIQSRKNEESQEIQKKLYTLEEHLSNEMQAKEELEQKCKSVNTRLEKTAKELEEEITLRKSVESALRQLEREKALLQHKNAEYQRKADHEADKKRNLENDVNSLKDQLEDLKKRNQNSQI

| Hill Coefficient (nH) [3] | Compound | % Max. IOP Reduction in Rabbit Eyes [1, 4] | % Max. IOP Reduction in Rabbit Eyes [1, 5] | % Max. IOP Reduction in Rabbit Eyes [1, 6] | % Max. IOP Reduction in Rabbit Eyes [1, 7] | % Max. IOP Reduction in Ocular Hypertensive Monkey Eyes [2, 10] | % Max. IOP Reduction in Ocular Hypertensive Monkey Eyes [2, 11] | % Max. IOP Reduction in Ocular Hypertensive Monkey Eyes [2, 12] | % Max. IOP Reduction in Ocular Hypertensive Monkey Eyes [2, 8] | % Max. IOP Reduction in Ocular Hypertensive Monkey Eyes [2, 9] | % Max. IOP Reduction in Ocular Hypertensive Monkey Eyes [2, 13] | % Max. IOP Reduction in Ocular Hypertensive Monkey Eyes [2, 4] | % Max. IOP Reduction in Ocular Hypertensive Monkey Eyes [2, 6] | % Max. IOP Reduction in Ocular Hypertensive Monkey Eyes [2, 16] | further results |
| --- | --- | --- | --- | --- | --- | --- | --- | --- | --- | --- | --- | --- | --- | --- | --- |
|  | Cc1cncc2cccc(S(=O)(=O)N3CCCNCC3C)c12 (stereo not drawn) [A, HMN-1152] | 34% | 34% | 27% | 19% | 29% | 30% | 21% | 42% | 51% | 36% |  |  |  | % Max. IOP Reduction in Rabbit Eyes [1, 8]: 29%; % Max. IOP Reduction in Rabbit Eyes ([1]; topical ocular dose 1 mg, 2 Hours Post Dosing): 35%; % Max. IOP Reduction in Rabbit Eyes [1, 9]: 32%; % Max. IOP Reduction in Rabbit Eyes ([1]; topical ocular dose 1 mg, 4 Hours Post Dosing): 24%; % Max. IOP Reduction in Ocular Hypertensive Monkey Eyes ([2]; topical ocular dose 100 μg, 1 Hour Post Dosing): 28%; % Max. IOP Reduction in Ocular Hypertensive Monkey Eyes ([2]; topical ocular dose 100 μg, 3 Hours Post Dosing): 25%; % Max. IOP Reduction in Ocular Hypertensive Monkey Eyes ([2]; topical ocular dose 100 μg, 6 Hours Post Dosing): 19% |
| 0.6 ± 0.2 | Cc1cncc2c1=C(S(=O)(=O)N1CCCN(C)CC1C)CCC=2 (stereo not drawn) [B] |  |  |  |  |  |  |  |  |  |  |  |  |  | IC50 [3]: 0.485 ± 0.207 µM |
|  | O=S(=O)(c1cccc2cnccc12)N1CCCNCC1 [D, Fasudil, Fasudil] | 25% | 33% | 25% | 17% |  |  |  |  |  |  | 33% | 28% | 16% | % Max. IOP Reduction in Rabbit Eyes [1, 10]: 17%; % Max. IOP Reduction in Rabbit Eyes [1, 14]: 29%; % Max. IOP Reduction in Rabbit Eyes [1, 11]: 26%; % Max. IOP Reduction in Rabbit Eyes [1, 15]: 20% |
| 0.99 ± 0.13 | CC1CNCCN1S(=O)(=O)c1cccc2cnccc12 (stereo not drawn) [E, H-7] | 19% | 11% | 0% | 6% |  |  |  | 31% | 21% | 12% |  |  |  |  |
| 0.94 ± 0.11 | Cc1cncc2cccc(S(=O)(=O)N3CCNC(C)C3)c12 (stereo not drawn) [F] |  |  |  |  |  |  |  |  |  |  | 23% | 20% | 20% |  |
|  | CC(N)[C@H]1CC[C@H](C(=O)Nc2ccccc2)CC1 (stereo partly drawn) [G, Y-27632] |  |  |  |  | 15% | 14% | 8% | 24% | 36% | 32% |  |  |  | % Max. IOP Reduction in Rabbit Eyes ([1]; topical ocular dose 2 mg, 1 Hour Post Dosing): 26%; % Max. IOP Reduction in Rabbit Eyes ([1]; topical ocular dose 2 mg, 2 Hours Post Dosing): 28%; % Max. IOP Reduction in Rabbit Eyes ([1]; topical ocular dose 2 mg, 3 Hours Post Dosing): 29%; % Max. IOP Reduction in Rabbit Eyes ([1]; topical ocular dose 2 mg, 4 Hours Post Dosing): 27% |
| 0.95 ± 0.16 | Cc1cncc2cccc(S(=O)(=O)N3CCCN(C)C(C)C3)c12 (stereo not drawn) [H] |  |  |  |  |  |  |  |  |  |  |  |  |  |  |
| 0.91 ± 0.28 | CC1CN(S(=O)(=O)c2cccc3cnccc23)CCN1 (stereo not drawn) [I, HA-135] |  |  |  |  |  |  |  |  |  |  | 19% | 15% | 1% |  |
| 0.9 ± 0.3 | O=S(=O)(c1cccc2c(Cl)cccc12)N1CCCNCC1 [J, ML-9] |  |  |  |  | 7% | 6% | 5% |  |  |  |  |  |  | IC50 [3]: 12 µM; % Max. IOP Reduction in Rabbit Eyes [1, 10]: 8%; % Max. IOP Reduction in Rabbit Eyes [1, 14]: 23%; % Max. IOP Reduction in Rabbit Eyes [1, 11]: 0.4%; % Max. IOP Reduction in Rabbit Eyes [1, 15]: 6% |
